Assay results taken from patent US6893829B2, “Human leukocyte 12-lipoxygenase and its role in the pathogenesis of disease states” (City of Hope, priority 1992, dated 2005).

Legend:
[1] = system: 12-LO activity in HSMC; test: 12-HETE release and cell-associated 12-HETE in HSMC (HPLC/RIA); format: cell-based, human
Procedure: FIG. 3A illustrates the effect of AII on 12-HETE release by HSMC. HSMC were grown to confluency. Serum was removed and cells were incubated in media 199 containing 0.4% fetal bovine serum (FBS) and 0.2% BSA for 18 hours. Cells were then washed with DME media and incubated for 20 minutes in DME media containing 0.2% BSA. AII was added to the cells for five and ten minutes at the concentrations of 10^−9 and 10^−8 mol/L. Media were collected for HETE assay. • *p<0.05 vs control n=4
FIG. 3B illustrates the effect of AII on cell-associated 12-HETE levels in HSMC. After collecting supernatants, cells were washed with ice-cold PBS and harvested by scraping for the assay of cell-associated HETEs. • *p<0.02 vs control n=4
HSMC and HAEC monolayers were washed twice with ice-cold PBS and then processed for RNA extraction or western analysis as described below. For hydroxyeicosatetraenoic acid (HETE) assay, approximately 24 hours prior to an experiment, the medium was replaced with medium 199 containing 0.4% FBS and 0.2% BSA.
These assays were performed using previously published methods (10,11). Briefly, 12- and 15-HETE are extracted from supernatants and cells on C18 mini columns (Analytichem International, CA) and measured using our validated reverse phase gradient HPLC and (RIA) methods.
Another major aspect of this invention is the discovery that AII increases the activity and expression of 12-LO mRNA and protein in HSMC.

[2] = system: leukocyte 12-LO mRNA in HSMC; test: 12-LO mRNA expression in HSMC (RT-PCR); format: cell-based, human; settings: AII 10^−7 mol/L
Description: FIGS. 5A and 5B illustrate the regulation of leukocyte 12-LO mRNA levels by AII in HSMC using RT-PCR. FIG. 5A is the autoradiogram of the blot hybridized with 12-LO oligonucleotide probe. FIG. 5B is etidium bromide stained agarose gel. […] RNA samples were amplified for 40 cycles with leukocyte 12-LO primers or GAPDH primers.
Total RNA from cultured HSMC, HAEC and fresh MO was extracted with guanidiumthiocyanate-phenol-chloroform using RNAzol (Cinna/Biotecx Laboratories International Inc., Texas). Some RNA samples were treated by RNAse-free DNAse. 3 microgram of total RNA was mixed with the PCR buffer (10 mmol/L Tris-HCl, pH 8.3, 50 mmol/L KCl, 1.5 mmol/L MgCl2, and 0.001% gelatin), 200 μmol/L of each of the four deoxynucleotide triphosphates, 25 pmol each of 5′- and 3′-primers, 2 U Avian Myeloblastosis Virus reverse transcriptase (20 U/μl; Life Sciences, St. Petersburg, Fla.), and 2.5 U Taq polymerase (Perkin Elmer Cetus, Norwalk, Conn.) in a final vol of 50 μl. In some reactions, 5 pmol of each 5′- and 3′-primer of β2 macroglobulin or GAPDH were added as an internal standard. The samples were placed in a thermal cycler at 37° C. for eight minutes for the RT reaction to proceed. Then conditions used for PCR were a denaturation step at 94° C. for one-minute, annealing at 50° C. for two minutes, and extension at 72° C. for two minutes for 20-40 cycles. Blank reactions with no RNA template were carried out through the RT and PCR steps. […]
20 μl aliquots of the PCR products were subjected to electrophoresis in a 1.8% agarose gel in Tris acetate-EDTA buffer. […] Blots were quantitated using a computerized video densitometer.
In order to evaluate the specific expression and regulation of 12-LO mRNA in HSMC, applicants used a RT-PCR assay that exclusively amplifies the leucocyte type of 12-LO. […] When PCR conditions were used that were specific for either the platelet type 12-LO or human 15-LO no specific RNA band was detected (data not shown). […]

[3] = system: ERK; test: ERK activity in CHO-AT1a cells; format: cell-based, Chinese hamster; settings: AII 10^−7M
Procedure: ERK activity was evaluated by the substrate-SDS-polyacrylamide gel method described in Anal. Biochem., 183:139-143 (1989). Confluent cells in […] were made quiescent in serum-free medium and then treated with agonists for various time periods. The cells were then lysed in lysis buffer (1% NP40, 1% sodium deoxycholate, 0.1% SDS, 100 mM NaCl, 50 mM Tris, 10 mM EDTA, 1 mM EGTA, aprotinin, […], 0.1 mM PMSF and 1 mM sodium orthovanadate, pH 7.4). Lysates were centrifuged to pellet nuclei and the cell extracts ([…]) were subjected to electrophoresis on SDS-polyacrylamide gels (10%) containing myelin basic protein (0.5 mg/ml) as an ERK substrate. The SDS was then washed, followed by denaturation, renaturation and protein phosphorylation on the gel with [^32P] ATP.
It has been discovered that the administration of AII results in biphasic activation of MAP kinase (all of the MAP kinase experiments were conducted in CHO-AT1a cells—AII receptor AT1a cDNA transfected Chinese hamster ovary cells).

Substance: Angiotensin II (DRVYIHPF; Angiotensin-2; UniProt P01019 25-32, looked up) [AII, peptide hormone, added to cells as stimulus]
- release of 12-HETE ([1]; AII 10^−8M, 5 minute incubation, serum free media, control 599±105): 1467±277 pg per mg of protein
- release of 12-HETE ([1]; AII 10^−8 mol/L, ten minute incubation): significantly simulated the release of 12-HETE
- release of 12-HETE ([1]; AII 10^−9 mol/L, 5 minute incubation, serum free media, control 599±105): 1296±262 pg per mg of protein
- cell-associated 12-HETE levels ([1]; HSMC, FIG. 3B): significantly also increased
- incubation time at which 12-LO mRNA induction starts [2]: 12 h
- incubation time of maximum 12-LO mRNA induction [2]: 36 h
- leukocyte type 12-LO mRNA expression ([2]; serum deprived HSMC): markedly upregulated
- stimulation of ERK activity, later peak ([3]; 3-4.5 hours): 1.5-3 fold
- stimulation of ERK activity, first peak ([3]; 5 minutes): 2-6 fold
